From patent publication US11464762B2, “Carcinogenesis inhibitor” (NATIONAL CANCER CENTER, priority 2017, dated 2022)

What was measured:
[1] = test system: intestinal polyps of C57BL/6-Apc^Min/+ mouse (Min mouse); test: Evaluation of intestinal polyp formation in Min mice; assay type: in vivo; conditions: for Number of intestinal polyp, colon / Number of intestinal polyp, small intestine distal segment / Number of intestinal polyp, small intestine middle segment / Number of intestinal polyp, small intestine proximal segment / Number of intestinal polyp, total: mean
Text: (1) Grouping of Experimental Animals and Administration of a Test Substance
As to an experimental animal, there was used a C57BL/6-Apc^Min/+ mouse (Min mouse) which was a familial adenomatosis coli model. The Min mouse is an Apc (adenomatous polyoisis coli) mutant mouse and an increase in polyp numbers is noted therein with time. It has been also known that the Min mouse is occurred with dyslipidemia in a state of highly oxidative stress. 5-week-old male Min mice were bred and acclimatized in a plastic cage (235×325×170 H mm) (six mice in maximum in a cage) in a laboratory where the temperature, the humidity and the brightness/darkness cycle were set at 24±2° C., 55% and 12 hours, respectively. In the meanwhile, they were freely ingested with filtered water and basic feed (MN-76A, CLEA Japan Inc.).
(§1) The experimental animals were randomly classified into a control group, a group to which 500 ppm of a test substance was administered and a group to which 1000 ppm of a test substance was administered. In each group, 10 mice per group were organized in such a manner that average body weight in the group became same. The control group was administered with a basic feed only and each of the 500 ppm test substance-administering group and the 1000 ppm test substance-administering group was administered with a mixed feed of a test substance (Compound 21) in 500 and 1000 ppm concentrations, respectively for eight weeks.
(2) Measurement of Numbers of Polyps in the Intestinal Tract
The mice in each group were killed under anesthetization at 13 weeks old and, after laparotomy, the intestinal tract was excised and fixed with formalin. Small intestine was divided into proximal segment (the segment in about 4 cm length from pylorus), middle segment and distal segment, then the polyp numbers in the four segments including colon were counted under a stereomicroscope and the mean value in each group was calculated.

[2] = test system: cyclin D1; test: Expression level of cell proliferation-associated factor mRNA (realtime-PCR), cyclin D1; assay type: in vivo, mouse; conditions: non-polyp part of small intestine mucosa, Min mice, 1000 ppm in feed, GAPDH-normalised, control group = 1.00, n=3
Protocol: (§2) (1) mRNA Extraction from the Intestinal Polyp Part and Non-Polyp Part, and cDNA Synthesis
(§3) TRIsol (Invitrogen) (500 μL) was added to a polyp part and a non-polyp part of small intestine mucosa of mouse of the control group and the 1000 ppm test substance-administering group scraped in Test Example 1. After 100 μL of chloroform was added thereto and mixed therewith, the mixture was centrifuged (12000 rpm for 2 minutes) and the supernatant liquid was recovered therefrom. The recovered supernatant liquid was added 250 μL of ethanol and RNA was extracted therefrom and purified using a column (QIAGEN).
(§4) After DNAse (Invitrogen) treatment, cDNA was prepared from 1 μg of the total RNA using High-Capacity cDNA Reverse Transcription Kits (Applied Biosystems). […]
(§5) Expression level of mRNA of the cell proliferation-associated factors [c-Myc, CDK4 and cyclin D1] was measured by a realtime-PCR method using the cDNA being synthesized from the total RNA extracted in the above (1). With regard to the polyp part, the mRNA expression level only of c-Myc was measured.
(§6) As to the PCR primers for each of the cell proliferation-associated factors, there were used c-Myc [Forward: […] […] Each of the resulted measured values was divided by the measured value of the glyceraldehyde-3-phosphate dehydrogenase (GAPDH) gene which was an internal standard whereupon the relative values were calculated. […]

[3] = test system: c-Myc; test: Expression level of cell proliferation-associated factor mRNA (realtime-PCR), c-Myc; assay type: in vivo, mouse; conditions: Min mice, 1000 ppm in feed, GAPDH-normalised, control group = 1.00, n=3
Protocol: as §2, §3, §4, §5, §6

[4] = Feed and body weight of Min mice during the administration period; assay type: in vivo, mouse; conditions: 500 and 1000 ppm in feed for eight weeks versus control group
Protocol: as §1

[5] = test system: CDK4; test: Expression level of cell proliferation-associated factor mRNA (realtime-PCR), CDK4; assay type: in vivo, mouse; conditions: non-polyp part of small intestine mucosa, Min mice, 1000 ppm in feed, GAPDH-normalised, control group = 1.00, n=3
Protocol: as §2, §3, §4, §5, §6

[6] = test system: PCNA antibody-positive cells in polyp part of mouse small intestine mucosa; test: Cell proliferation ability in polyp part of intestinal mucosa (PCNA immunostaining); assay type: in vivo; conditions: Min mice, 1000 ppm in feed, n = 14 (control group 71.26)
Protocol: The formalin-fixed slices embedded in paraffin prepared from the polyp part of mouse small intestine mucosa of the control group and of the 1000 ppm test substance-administering group being excised in Test Example 1 were dipped in xylene for five minutes×three times for the purpose of deparaffinization and were dipped in 99.5% alcohol for five minutes×three times to enhance the hydrophilicity followed by dipping into distilled water for 10 minutes. After that, the slices were dipped into a methanol solution containing 0.3% of hydrogen peroxide to conduct a deactivation treatment for the endogenous peroxidase. Further, 1 mL of a 0.3% Triton [Registered trade mark] X-100 solution containing 2% of horse serum (a phosphate-buffered saline (PBS) containing 0.3% of Triton) followed by blocking for 30 minutes.
To the slices was added an anti-mouse proliferating cell nuclear antigen (PCNA) antibody (Calbiochem [Registered trade mark]) diluted to an extent of 100 times and a primary antibody response was conducted overnight at 4° C. […] The ratio of the PCNA antibody-positive cell numbers to the total cell numbers in the microscopic field in each group was also calculated. […]

[7] = Evaluation of safety, repeated oral administration to healthy male adults; assay type: in vivo, human; conditions: oral 400 mg single dose, 17 administrations over seven days, six cases
Protocol: Eight healthy male adults (21 to 24 years age) (consisting of six cases being administered with the test substance and two cases being administered with the placebo) were used as the subjects and the present compound was orally administered repeatedly to evaluate the safety. A test substance (Compound 21) was orally administered in the single dose of 400 mg in such a manner that, on the first and the seventh day of the administration, once-daily in the morning on an empty stomach and, on the second to the sixth days of the administration, thrice-daily on an empty stomach (at 09:00, 14:00 and 19:00) together with 150 mL of water each (17 administrations in total).

[8] = 500 ppm in feed for eight weeks
[9] = 500 ppm in feed for eight weeks, n = 9
[10] = 1000 ppm in feed for eight weeks
[11] = 1000 ppm in feed for eight weeks, n = 8

CN1C(=O)NC(=O)C1O (stereo not shown) [Compound 21, 5-Hydroxy-1-methylhydantoin]
Decrease of polyp numbers in the middle segment of small intestine as compared with the control group [1, 8]: about 37% | Decrease of total numbers of polyps as compared with the control group [1, 8]: about 17% | Number of intestinal polyp, colon [1, 9]: 1.00 | Number of intestinal polyp, small intestine distal segment [1, 9]: 27.00 | Number of intestinal polyp, small intestine middle segment [1, 9]: 7.33 | Number of intestinal polyp, small intestine proximal segment [1, 9]: 3.89 | Number of intestinal polyp, total [1, 9]: 39.22 | Decrease of polyp numbers in the middle segment of small intestine as compared with the control group [1, 10]: ~29% | Decrease of total numbers of polyps as compared with the control group [1, 10]: about 17% | Number of intestinal polyp, colon [1, 11]: 0.38 | Number of intestinal polyp, small intestine distal segment [1, 11]: 25.63 | Number of intestinal polyp, small intestine middle segment [1, 11]: 8.25 | Number of intestinal polyp, small intestine proximal segment [1, 11]: 5.13 | Number of intestinal polyp, total [1, 11]: 39.38 | Ratio of expression quantity of cell proliferation-associated factor Cyclin D1 [2]: 0.27 | Ratio of expression quantity of cell proliferation-associated factor c-Myc ([3]; non-polyp part of small intestine mucosa): 0.25 | Ratio of expression quantity of cell proliferation-associated factor c-Myc ([3]; polyp part of small intestine mucosa): 0.39 | Difference in the feed and in the body weight among the groups during the administration period [4]: No significant difference | Ratio of expression quantity of cell proliferation-associated factor CDK4 [5]: 0.47 | Ratio of the PCNA antibody-positive cell numbers to the total cell numbers [6]: 58.40% | Abnormal variation in blood pressure, pulse rate, body temperature, hematological test, blood biochemical test and urinary test [7]: no abnormal variation suspected to be related to the present compound | Clinical symptoms suspected to be related to the compound [7]: no clinical symptom suspected to be related to the present compound
